Measurements: patent publication US20250352658A1, “COMBINATION THERAPY USING ANTIBODY-DRUG CONJUGATES” (ADC THERAPEUTICS SA, priority 2021, published 2025)
Square brackets hold non-standard residues; d marks the D form. Peptide text beside a SMILES is read from it. * marks the point of attachment. Dolaproine = CO[C@@H]([C@@H]1CCCN1)[C@@H](C)C(=O)O; Dil = CC[C@H](C)[C@H](NC)[C@@H](CC(=O)O)OC; X1 = C[C@@H](N*)[C@@H](O)c1ccccc1; NMeV = CN[C@H](C(=O)O)C(C)C

System: TMD8 cells
Test: CellTiterGlo viability assay, SG3199 and MMAE combination, TMD8
Type: cell-based
Conditions: for Fa (fraction affected) / CI (combination index): 24 hours
Method: We tested a combination of the warheads alone used in CD19xADC (PBD SG3199) and CD79bxADC (monomethyl auristatin E (MMAE)). This was performed essentially as per Example 1, in TMD8 cells. Cells were seeded at a density of 50,000 cells/mL. […]
Cells were incubated for 24 hours and then viability was measured with CellTiterGlo assay.
For analysis of the results, data were first blank corrected (average of blank of the 3 replicates was subtracted from each data value). For GraphPad analysis, each replicate was normalized over the untreated cells (average of the 3 replicates). Data were analysed by GraphPad Prism to generate a dose response curve with Log drug concentration on X-axis and cell viability (%) on Y-axis. For CalcuSyn analysis, the average of the 3 replicates was corrected over the untreated cells.

[1] = SG3199 0.06 pM + MMAE 0.08 ng/ml
[2] = SG3199 0.06 pM + MMAE 0.2 ng/ml
[3] = SG3199 0.06 pM + MMAE 0.6 ng/ml
[4] = SG3199 0.06 pM + MMAE 1.9 ng/ml
[5] = SG3199 0.06 pM + MMAE 5.6 ng/ml
[6] = SG3199 0.23 pM + MMAE 0.08 ng/ml
[7] = SG3199 0.23 pM + MMAE 0.2 ng/ml
[8] = SG3199 0.23 pM + MMAE 0.6 ng/ml
[9] = SG3199 0.23 pM + MMAE 1.9 ng/ml
[10] = SG3199 0.23 pM + MMAE 5.6 ng/ml
[11] = SG3199 0.90 pM + MMAE 0.08 ng/ml
[12] = SG3199 0.90 pM + MMAE 0.2 ng/ml
[13] = SG3199 0.90 pM + MMAE 0.6 ng/ml
[14] = SG3199 0.90 pM + MMAE 1.9 ng/ml
[15] = SG3199 0.90 pM + MMAE 5.6 ng/ml
[16] = SG3199 3.6 pM + MMAE 0.08 ng/ml
[17] = SG3199 14.4 pM + MMAE 0.08 ng/ml
[18] = SG3199 14.4 pM + MMAE 0.2 ng/ml
[19] = SG3199 14.4 pM + MMAE 0.6 ng/ml
[20] = SG3199 14.4 pM + MMAE 1.9 ng/ml
[21] = SG3199 14.4 pM + MMAE 5.6 ng/ml
[22] = SG3199 57.5 pM + MMAE 0.08 ng/ml
[23] = SG3199 57.5 pM + MMAE 0.2 ng/ml
[24] = SG3199 57.5 pM + MMAE 0.6 ng/ml
[25] = SG3199 57.5 pM + MMAE 1.9 ng/ml
[26] = SG3199 57.5 pM + MMAE 5.6 ng/ml
[27] = SG3199 230 pM + MMAE 0.08 ng/ml

In the case of `CC[C@H](C)[C@@H]([C@@H](CC(=O)N1CCC[C@H]1[C@H](OC)[C@@H](C)C(=O)N[C@H](C)[C@@H](O)c1ccccc1)OC)N(C)C(=O)[C@@H](NC(=O)[C@@H](NC)C(C)C)C(C)C` [MMAE, monomethyl auristatin E, reference compound] (H-[NMeV]V[Dil][Dolaproine]-X1), the “Fa (fraction affected)” value (MMAE 0.08 ng/ml alone (SG3199 0)) is reported as 0.11, the “Fa (fraction affected)” value (MMAE 0.2 ng/ml alone (SG3199 0)) is reported as 0.17 and the “Fa (fraction affected)” value (MMAE 0.6 ng/ml alone (SG3199 0)) is reported as 0.27. The “Fa (fraction affected)” value (MMAE 1.9 ng/ml alone (SG3199 0)) was 0.29 and the “Fa (fraction affected)” value (MMAE 5.6 ng/ml alone (SG3199 0)) was 0.38.

In the case of `CC[C@H](C)[C@@H]([C@@H](CC(=O)N1CCC[C@H]1[C@H](OC)[C@@H](C)C(=O)N[C@H](C)[C@@H](O)c1ccccc1)OC)N(C)C(=O)[C@@H](NC(=O)[C@@H](NC)C(C)C)C(C)C.COc1cc2c(cc1OCCCCCOc1cc3c(cc1OC)C(=O)N1C=C(C)C[C@H]1C=N3)N=C[C@@H]1CC(C)=CN1C2=O` [SG3199 + MMAE] (H-[NMeV]V[Dil][Dolaproine]-X1), the “CI (combination index)” value [1] is reported as 1.65, the “Fa (fraction affected)” value [1] is reported as 0.12 and the “CI (combination index)” value [2] is reported as 2.06. For the same molecule, the “Fa (fraction affected)” value [2] was 0.13, the “CI (combination index)” value [3] was 0.53 and the “Fa (fraction affected)” value [3] was 0.27. For the same molecule, the “CI (combination index)” value [4] was 0.79, the “Fa (fraction affected)” value [4] was 0.32 and the “CI (combination index)” value [5] was 1.23. The “Fa (fraction affected)” value [5] was 0.38, the “CI (combination index)” value [6] was 434.19 and the “Fa (fraction affected)” value [6] was 0.05. For the same molecule, the “CI (combination index)” value [7] was 2.22, the “Fa (fraction affected)” value [7] was 0.14 and the “CI (combination index)” value [8] was 0.40. For the same molecule, the “Fa (fraction affected)” value [8] was 0.29, the “CI (combination index)” value [9] was 1.18 and the “Fa (fraction affected)” value [9] was 0.29. For the same molecule, the “CI (combination index)” value [10] was 0.98, the “Fa (fraction affected)” value [10] was 0.40 and the “CI (combination index)” value [11] was 0.58. For the same molecule, the “Fa (fraction affected)” value [11] was 0.19, the “CI (combination index)” value [12] was 2.08 and the “Fa (fraction affected)” value [12] was 0.16. For the same molecule, the “CI (combination index)” value [13] was 0.29, the “Fa (fraction affected)” value [13] was 0.31 and the “CI (combination index)” value [14] was 0.83. For the same molecule, the “Fa (fraction affected)” value [14] was 0.32, the “CI (combination index)” value [15] was 0.85 and the “Fa (fraction affected)” value [15] was 0.41. The “CI (combination index)” value [16] was 5.16, the “Fa (fraction affected)” value [16] was 0.16 and the “CI (combination index)” value (SG3199 3.6 pM + MMAE 0.2 ng/ml) was 69.07. The “Fa (fraction affected)” value (SG3199 3.6 pM + MMAE 0.2 ng/ml) was 0.11, the “CI (combination index)” value (SG3199 3.6 pM + MMAE 0.6 ng/ml) was 1.26 and the “Fa (fraction affected)” value (SG3199 3.6 pM + MMAE 0.6 ng/ml) was 0.23. For the same molecule, the “CI (combination index)” value (SG3199 3.6 pM + MMAE 1.9 ng/ml) was 1.36, the “Fa (fraction affected)” value (SG3199 3.6 pM + MMAE 1.9 ng/ml) was 0.28 and the “CI (combination index)” value (SG3199 3.6 pM + MMAE 5.6 ng/ml) was 1.93. For the same molecule, the “Fa (fraction affected)” value (SG3199 3.6 pM + MMAE 5.6 ng/ml) was 0.34, the “CI (combination index)” value [17] was 12.16 and the “Fa (fraction affected)” value [17] was 0.17. For the same molecule, the “CI (combination index)” value [18] was 18.45, the “Fa (fraction affected)” value [18] was 0.16 and the “CI (combination index)” value [19] was 0.60. For the same molecule, the “Fa (fraction affected)” value [19] was 0.29, the “CI (combination index)” value [20] was 1.32 and the “Fa (fraction affected)” value [20] was 0.29. For the same molecule, the “CI (combination index)” value [21] was 1.12, the “Fa (fraction affected)” value [21] was 0.39 and the “CI (combination index)” value [22] was 0.22. The “Fa (fraction affected)” value [22] was 0.34, the “CI (combination index)” value [23] was 0.39 and the “Fa (fraction affected)” value [23] was 0.33. For the same molecule, the “CI (combination index)” value [24] was 0.23, the “Fa (fraction affected)” value [24] was 0.37 and the “CI (combination index)” value [25] was 0.30. For the same molecule, the “Fa (fraction affected)” value [25] was 0.42, the “CI (combination index)” value [26] was 0.37 and the “Fa (fraction affected)” value [26] was 0.49. For the same molecule, the “CI (combination index)” value [27] was 0.03, the “Fa (fraction affected)” value [27] was 0.47 and the “CI (combination index)” value (SG3199 230 pM + MMAE 0.2 ng/ml) was 0.02. For the same molecule, the “Fa (fraction affected)” value (SG3199 230 pM + MMAE 0.2 ng/ml) was 0.51, the “CI (combination index)” value (SG3199 230 pM + MMAE 0.6 ng/ml) was 0.03 and the “Fa (fraction affected)” value (SG3199 230 pM + MMAE 0.6 ng/ml) was 0.54. For the same molecule, the “CI (combination index)” value (SG3199 230 pM + MMAE 1.9 ng/ml) was 0.04, the “Fa (fraction affected)” value (SG3199 230 pM + MMAE 1.9 ng/ml) was 0.59 and the “CI (combination index)” value (SG3199 230 pM + MMAE 5.6 ng/ml) was 0.09. For the same molecule, the “Fa (fraction affected)” value (SG3199 230 pM + MMAE 5.6 ng/ml) was 0.62 and the “median Chou-Talalay combination index (CI)” value (TMD8, 24 hours, <0.9 indicates synergy) was 0.85.

`COc1cc2c(cc1OCCCCCOc1cc3c(cc1OC)C(=O)N1C=C(C)C[C@H]1C=N3)N=C[C@@H]1CC(C)=CN1C2=O` [SG3199, reference compound] was tested, and the “Fa (fraction affected)” value (SG3199 0.06 pM alone (MMAE 0)) was 0.12, the “Fa (fraction affected)” value (SG3199 0.23 pM alone (MMAE 0)) was 0.16 and the “Fa (fraction affected)” value (SG3199 0.90 pM alone (MMAE 0)) was 0.15. The “Fa (fraction affected)” value (SG3199 3.6 pM alone (MMAE 0)) was 0.15, the “Fa (fraction affected)” value (SG3199 14.4 pM alone (MMAE 0)) was 0.19 and the “Fa (fraction affected)” value (SG3199 57.5 pM alone (MMAE 0)) was 0.23. For the same molecule, the “Fa (fraction affected)” value (SG3199 230 pM alone (MMAE 0)) was 0.46.
